Source: ChEMBL document CHEMBL1201862, “PubChem BioAssay data set” (2004)
pIC50: −log10 of the molar value. The source made the active and inactive calls.

Key:
Cytochrome P450 2C9 = Cytochrome P450 2C9 (Homo sapiens, UniProt P11712)
[1] = Counterscreen for AddAB inhibitors: absorbance-based bacterial cell-based high throughput dose response assay for inhibitors of bacterial viability. [Related pubchem assays (depositor defined):AID435030, AID449728, AID449731, AID488942, AID488955, AID488956]; format: functional
Exodeoxyribonuclease V = target: T1, Exodeoxyribonuclease V (Escherichia coli (strain K12), UniProt P04993+P07648+P08394); experiment: RecBCD inhibition via phage-restricted bacterial growth – absorbance, V66 E. coli, mutant T4 phage, counter-screen for AddAB inhibitor project, dose response (AID 492957); format: functional, cell-based, Escherichia coli str. K-12 substr. MG1655
T1 sequence (P04993 whole entry): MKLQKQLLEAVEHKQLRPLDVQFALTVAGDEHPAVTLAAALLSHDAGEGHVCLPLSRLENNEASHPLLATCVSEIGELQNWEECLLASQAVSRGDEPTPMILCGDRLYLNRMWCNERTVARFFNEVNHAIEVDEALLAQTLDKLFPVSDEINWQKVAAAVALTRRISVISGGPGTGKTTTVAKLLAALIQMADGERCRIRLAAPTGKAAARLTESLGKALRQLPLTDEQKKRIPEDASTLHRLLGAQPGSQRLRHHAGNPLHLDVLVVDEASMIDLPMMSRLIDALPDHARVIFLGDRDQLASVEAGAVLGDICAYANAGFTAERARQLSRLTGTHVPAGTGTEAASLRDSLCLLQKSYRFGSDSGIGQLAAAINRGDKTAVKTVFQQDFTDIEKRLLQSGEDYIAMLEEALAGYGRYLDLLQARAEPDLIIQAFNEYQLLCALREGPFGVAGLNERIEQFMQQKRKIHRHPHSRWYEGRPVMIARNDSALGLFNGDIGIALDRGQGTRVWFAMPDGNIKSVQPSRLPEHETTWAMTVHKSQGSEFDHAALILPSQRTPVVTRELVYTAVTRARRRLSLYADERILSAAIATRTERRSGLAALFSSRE
T1 sequence (P07648 whole entry): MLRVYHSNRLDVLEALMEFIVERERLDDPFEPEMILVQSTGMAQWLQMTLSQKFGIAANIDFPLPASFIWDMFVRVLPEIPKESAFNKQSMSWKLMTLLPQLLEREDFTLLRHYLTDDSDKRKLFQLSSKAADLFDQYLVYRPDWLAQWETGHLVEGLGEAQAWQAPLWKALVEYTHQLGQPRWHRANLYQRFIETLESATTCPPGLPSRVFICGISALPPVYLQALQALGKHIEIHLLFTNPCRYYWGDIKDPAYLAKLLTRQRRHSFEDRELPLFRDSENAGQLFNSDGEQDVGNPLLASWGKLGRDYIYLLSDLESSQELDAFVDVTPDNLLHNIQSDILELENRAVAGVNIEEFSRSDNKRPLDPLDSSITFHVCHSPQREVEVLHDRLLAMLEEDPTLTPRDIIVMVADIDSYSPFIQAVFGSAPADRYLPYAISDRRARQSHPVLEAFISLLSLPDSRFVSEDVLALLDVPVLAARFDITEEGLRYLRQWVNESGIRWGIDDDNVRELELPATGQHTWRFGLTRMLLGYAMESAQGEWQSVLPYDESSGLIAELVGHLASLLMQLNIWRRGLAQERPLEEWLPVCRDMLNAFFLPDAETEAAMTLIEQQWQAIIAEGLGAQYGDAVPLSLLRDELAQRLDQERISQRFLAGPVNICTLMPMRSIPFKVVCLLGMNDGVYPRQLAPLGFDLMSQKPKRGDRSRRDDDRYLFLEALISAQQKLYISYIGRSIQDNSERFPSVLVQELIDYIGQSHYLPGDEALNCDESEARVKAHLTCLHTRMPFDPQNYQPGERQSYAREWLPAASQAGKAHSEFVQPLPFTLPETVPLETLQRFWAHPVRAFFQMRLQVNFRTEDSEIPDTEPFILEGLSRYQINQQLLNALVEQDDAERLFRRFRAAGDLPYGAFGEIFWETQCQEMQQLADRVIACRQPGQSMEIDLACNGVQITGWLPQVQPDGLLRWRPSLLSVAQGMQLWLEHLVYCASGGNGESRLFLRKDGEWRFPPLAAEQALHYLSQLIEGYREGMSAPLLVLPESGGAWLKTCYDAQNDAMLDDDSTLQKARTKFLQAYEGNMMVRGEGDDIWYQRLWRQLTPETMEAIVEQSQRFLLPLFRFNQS
T1 sequence (P08394 whole entry): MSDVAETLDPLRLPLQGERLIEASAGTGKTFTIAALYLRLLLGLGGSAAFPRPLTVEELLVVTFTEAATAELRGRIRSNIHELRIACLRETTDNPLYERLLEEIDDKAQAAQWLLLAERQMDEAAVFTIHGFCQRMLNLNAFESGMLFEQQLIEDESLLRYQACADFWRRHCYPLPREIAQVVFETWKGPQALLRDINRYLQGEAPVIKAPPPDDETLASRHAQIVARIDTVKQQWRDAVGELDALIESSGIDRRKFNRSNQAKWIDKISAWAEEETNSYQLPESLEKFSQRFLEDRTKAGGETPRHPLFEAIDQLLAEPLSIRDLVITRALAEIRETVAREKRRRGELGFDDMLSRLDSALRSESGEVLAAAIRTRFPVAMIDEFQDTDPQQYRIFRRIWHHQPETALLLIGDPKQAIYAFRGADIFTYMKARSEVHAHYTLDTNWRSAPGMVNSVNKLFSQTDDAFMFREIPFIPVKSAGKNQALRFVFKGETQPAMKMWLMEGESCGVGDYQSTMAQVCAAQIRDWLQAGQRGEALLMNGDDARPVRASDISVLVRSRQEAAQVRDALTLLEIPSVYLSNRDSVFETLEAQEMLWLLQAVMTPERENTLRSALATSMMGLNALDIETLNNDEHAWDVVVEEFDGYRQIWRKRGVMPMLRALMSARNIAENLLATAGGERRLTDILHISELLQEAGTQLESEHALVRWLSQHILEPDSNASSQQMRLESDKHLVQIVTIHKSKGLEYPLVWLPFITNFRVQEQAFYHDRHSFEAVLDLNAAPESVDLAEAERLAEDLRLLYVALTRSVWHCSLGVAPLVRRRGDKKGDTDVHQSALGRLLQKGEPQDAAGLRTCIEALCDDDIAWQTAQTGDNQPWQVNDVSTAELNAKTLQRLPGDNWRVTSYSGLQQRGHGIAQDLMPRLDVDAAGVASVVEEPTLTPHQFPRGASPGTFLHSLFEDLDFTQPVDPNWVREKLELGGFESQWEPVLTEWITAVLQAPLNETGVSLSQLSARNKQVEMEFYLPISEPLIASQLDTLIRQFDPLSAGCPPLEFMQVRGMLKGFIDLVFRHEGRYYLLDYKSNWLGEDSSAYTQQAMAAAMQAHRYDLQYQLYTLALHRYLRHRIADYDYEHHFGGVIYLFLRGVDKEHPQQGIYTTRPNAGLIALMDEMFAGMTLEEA

[2] = viability of uninfected HEp-2 cells – cell-based, HTS, cytotoxicity control for RSV inhibitor project, dose response (AID 2410); format: functional; settings: human respiratory syncytial virus
Vero [3] = experiment: cells; format: functional, cell-based; settings: Chlorocebus sabaeus
Beta-galactosidase = Beta-galactosidase (Escherichia coli, UniProt Q8VNN2); format: functional
Beta-galactosidase, sequence (Q8VNN2 whole entry): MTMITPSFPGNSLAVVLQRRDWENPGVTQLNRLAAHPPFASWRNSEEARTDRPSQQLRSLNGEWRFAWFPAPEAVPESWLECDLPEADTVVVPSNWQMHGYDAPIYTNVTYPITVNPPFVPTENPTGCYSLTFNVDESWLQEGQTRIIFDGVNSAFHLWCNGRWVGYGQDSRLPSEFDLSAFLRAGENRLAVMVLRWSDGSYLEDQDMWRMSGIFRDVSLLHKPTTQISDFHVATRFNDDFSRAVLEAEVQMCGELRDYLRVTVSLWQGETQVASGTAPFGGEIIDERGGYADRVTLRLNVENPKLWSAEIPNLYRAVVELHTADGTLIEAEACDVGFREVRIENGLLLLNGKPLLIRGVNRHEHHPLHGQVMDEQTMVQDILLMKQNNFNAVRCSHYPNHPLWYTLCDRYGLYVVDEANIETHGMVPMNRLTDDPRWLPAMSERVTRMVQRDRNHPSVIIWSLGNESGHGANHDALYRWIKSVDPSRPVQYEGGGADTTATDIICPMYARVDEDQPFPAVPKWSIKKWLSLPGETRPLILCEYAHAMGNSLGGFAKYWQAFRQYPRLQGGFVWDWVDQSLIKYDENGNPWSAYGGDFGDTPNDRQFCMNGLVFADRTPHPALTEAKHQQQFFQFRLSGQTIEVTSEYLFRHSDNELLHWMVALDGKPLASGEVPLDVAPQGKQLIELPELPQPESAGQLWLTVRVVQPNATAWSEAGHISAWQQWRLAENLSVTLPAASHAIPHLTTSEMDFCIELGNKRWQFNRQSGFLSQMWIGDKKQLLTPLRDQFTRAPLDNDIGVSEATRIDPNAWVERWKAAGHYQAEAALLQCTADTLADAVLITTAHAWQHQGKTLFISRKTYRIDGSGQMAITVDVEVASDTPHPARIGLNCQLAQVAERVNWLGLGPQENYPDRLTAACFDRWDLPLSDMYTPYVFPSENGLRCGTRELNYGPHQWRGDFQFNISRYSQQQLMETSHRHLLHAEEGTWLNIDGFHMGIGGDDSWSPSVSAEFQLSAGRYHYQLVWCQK

[4] = target: T2, Kappa-type opioid receptor (Homo sapiens, UniProt P41145); format: functional
T2 sequence (P41145 whole entry): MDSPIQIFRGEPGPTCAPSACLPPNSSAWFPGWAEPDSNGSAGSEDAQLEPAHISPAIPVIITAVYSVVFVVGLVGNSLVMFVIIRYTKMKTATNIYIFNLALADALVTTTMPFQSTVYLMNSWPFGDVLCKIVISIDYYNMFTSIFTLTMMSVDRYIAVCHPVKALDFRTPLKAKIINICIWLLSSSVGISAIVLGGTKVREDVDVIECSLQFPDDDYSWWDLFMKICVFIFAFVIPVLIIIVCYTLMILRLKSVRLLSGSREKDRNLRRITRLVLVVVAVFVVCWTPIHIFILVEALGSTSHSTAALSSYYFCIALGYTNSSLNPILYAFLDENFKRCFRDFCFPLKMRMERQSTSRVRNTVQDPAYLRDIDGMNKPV

Nonstructural protein 1 = Nonstructural protein 1 (Influenza A virus, UniProt Q194T2); format: functional, Influenza A virus (A/California/07/2009(H1N1))
Nonstructural protein 1, sequence (Q194T2 whole entry): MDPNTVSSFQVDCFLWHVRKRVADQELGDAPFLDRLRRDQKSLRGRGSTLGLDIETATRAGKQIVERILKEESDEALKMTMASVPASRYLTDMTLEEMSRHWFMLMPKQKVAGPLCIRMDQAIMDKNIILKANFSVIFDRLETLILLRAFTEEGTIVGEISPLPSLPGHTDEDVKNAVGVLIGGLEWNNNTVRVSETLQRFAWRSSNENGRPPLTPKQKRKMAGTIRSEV

[5] = target: T3, Heat shock factor protein 1 (Mus musculus, UniProt P38532); experiment: decrease of HSF1-responsive luciferase luminescence – cell-based, NIH3T3, dose retest, confirmation (AID 2382); format: functional;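 also: NIH3T3 fibroblasts with HSF1-driven luciferase reporter stressed by proteasome inhibitor MG132; luminescence from HSF1-driven luciferase expression after 8 hours of MG132 stress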
T3 sequence (P38532 whole entry): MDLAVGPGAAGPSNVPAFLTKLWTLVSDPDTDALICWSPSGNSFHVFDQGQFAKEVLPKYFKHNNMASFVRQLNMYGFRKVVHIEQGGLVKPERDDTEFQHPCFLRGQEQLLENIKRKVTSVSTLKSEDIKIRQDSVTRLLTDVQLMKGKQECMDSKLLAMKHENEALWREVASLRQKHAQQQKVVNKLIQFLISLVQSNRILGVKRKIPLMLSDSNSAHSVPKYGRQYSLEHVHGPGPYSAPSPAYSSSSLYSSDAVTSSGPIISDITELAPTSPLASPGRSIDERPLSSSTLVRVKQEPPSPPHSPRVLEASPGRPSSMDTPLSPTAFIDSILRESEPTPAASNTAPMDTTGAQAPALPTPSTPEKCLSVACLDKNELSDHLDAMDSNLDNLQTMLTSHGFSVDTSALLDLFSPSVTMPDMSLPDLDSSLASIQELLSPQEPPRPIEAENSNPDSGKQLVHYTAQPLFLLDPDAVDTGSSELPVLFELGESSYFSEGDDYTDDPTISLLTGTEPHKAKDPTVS

[6] = target: T2, Kappa-type opioid receptor; format: functional; remark: listed apart in the source
HEK293 [7] = experiment: optical interference in Abeta FP readout, dose response, artefact control for IDE activator project, biochemical, fluorescence polarization (AID 588442); format: functional, cell-based; settings: Homo sapiens
Insulin-degrading enzyme [8] = target: T4, Insulin-degrading enzyme (Homo sapiens, UniProt P14735); experiment: recombinant IDE activation, cell-free – biochemical, fluorescence polarization, counter-screen for IDE activator project, dose response (AID 588681)
T4 sequence (P14735 whole entry): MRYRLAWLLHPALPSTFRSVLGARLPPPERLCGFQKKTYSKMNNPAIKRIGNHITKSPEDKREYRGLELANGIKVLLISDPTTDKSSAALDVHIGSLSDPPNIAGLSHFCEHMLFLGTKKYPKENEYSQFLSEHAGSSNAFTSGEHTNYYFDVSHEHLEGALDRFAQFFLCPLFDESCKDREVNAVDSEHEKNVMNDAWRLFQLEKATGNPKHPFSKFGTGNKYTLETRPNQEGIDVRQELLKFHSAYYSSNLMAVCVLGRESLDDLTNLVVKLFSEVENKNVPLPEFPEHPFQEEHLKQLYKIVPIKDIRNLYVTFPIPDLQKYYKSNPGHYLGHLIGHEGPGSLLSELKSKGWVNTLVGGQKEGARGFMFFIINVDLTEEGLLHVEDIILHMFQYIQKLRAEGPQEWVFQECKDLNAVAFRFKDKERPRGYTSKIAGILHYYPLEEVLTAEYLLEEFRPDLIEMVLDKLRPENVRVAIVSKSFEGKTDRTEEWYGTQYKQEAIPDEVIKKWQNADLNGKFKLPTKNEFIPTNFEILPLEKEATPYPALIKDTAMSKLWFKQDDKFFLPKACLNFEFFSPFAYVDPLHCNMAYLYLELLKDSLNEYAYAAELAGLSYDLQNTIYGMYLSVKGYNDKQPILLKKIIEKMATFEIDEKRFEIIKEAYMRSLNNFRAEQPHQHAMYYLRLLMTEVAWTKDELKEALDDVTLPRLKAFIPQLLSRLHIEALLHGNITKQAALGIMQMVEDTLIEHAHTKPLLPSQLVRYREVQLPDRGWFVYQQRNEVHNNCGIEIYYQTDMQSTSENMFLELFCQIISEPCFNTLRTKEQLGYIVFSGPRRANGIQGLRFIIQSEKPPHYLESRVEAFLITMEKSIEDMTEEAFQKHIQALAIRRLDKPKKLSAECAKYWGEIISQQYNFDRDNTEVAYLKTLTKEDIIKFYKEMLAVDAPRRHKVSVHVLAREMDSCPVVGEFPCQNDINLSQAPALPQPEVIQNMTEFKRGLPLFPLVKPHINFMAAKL

Insulin-degrading enzyme [9] = target: T4, Insulin-degrading enzyme; experiment: cellular IDE activation of Abeta substrate cleavage – fluorescence polarization, HEK cells, dose response (AID 588439); format: functional, cell-based
HEK293 [10] = experiment: membrane integrity loss in HEK cells – cell-based, fluorescence, cytotoxicity control for IDE activator project, dose response (AID 588440); format: functional, Homo sapiens; settings: Homo sapiens, HEK293;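 also: cytotoxicity by LDH release measuring loss of membrane integrity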
[11] = target: Glucose-6-phosphate 1-dehydrogenase (Homo sapiens, UniProt P11413); experiment: inhibition of Homo sapiens G6PD, dose series – biochemical, fluorescence, selectivity assay for P. falciparum G6PD inhibitor project, dose response (AID 504792); format: functional
Glucose-6-phosphate 1-dehydrogenase, sequence (P11413 whole entry): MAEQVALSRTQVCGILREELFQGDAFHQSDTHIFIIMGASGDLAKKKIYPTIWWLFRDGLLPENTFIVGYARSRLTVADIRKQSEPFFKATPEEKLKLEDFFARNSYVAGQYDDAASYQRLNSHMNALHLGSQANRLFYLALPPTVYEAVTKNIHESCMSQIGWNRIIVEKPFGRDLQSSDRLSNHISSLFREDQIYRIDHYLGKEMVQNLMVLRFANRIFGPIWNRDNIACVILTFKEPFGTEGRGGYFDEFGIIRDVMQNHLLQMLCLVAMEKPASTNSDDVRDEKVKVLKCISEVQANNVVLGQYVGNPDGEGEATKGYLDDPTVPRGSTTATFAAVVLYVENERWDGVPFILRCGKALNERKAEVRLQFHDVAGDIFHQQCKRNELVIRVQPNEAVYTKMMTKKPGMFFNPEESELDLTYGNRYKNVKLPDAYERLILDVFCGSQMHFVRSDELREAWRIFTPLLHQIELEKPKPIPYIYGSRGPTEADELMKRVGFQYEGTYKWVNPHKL

Vero [12] = experiment: viability of Vero cells under compound – cytotoxicity control for flavivirus capping enzyme inhibitors (AID 588742); format: functional; settings: Chlorocebus sabaeus
Vero [13] = experiment: cells; format: functional; settings: Chlorocebus sabaeus
Cytochrome P450 2D6 = Cytochrome P450 2D6 (Homo sapiens, UniProt P10635);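 also: CYP2D6 member of a cytochrome P450 panel assay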
Cytochrome P450 2D6, sequence (P10635 whole entry): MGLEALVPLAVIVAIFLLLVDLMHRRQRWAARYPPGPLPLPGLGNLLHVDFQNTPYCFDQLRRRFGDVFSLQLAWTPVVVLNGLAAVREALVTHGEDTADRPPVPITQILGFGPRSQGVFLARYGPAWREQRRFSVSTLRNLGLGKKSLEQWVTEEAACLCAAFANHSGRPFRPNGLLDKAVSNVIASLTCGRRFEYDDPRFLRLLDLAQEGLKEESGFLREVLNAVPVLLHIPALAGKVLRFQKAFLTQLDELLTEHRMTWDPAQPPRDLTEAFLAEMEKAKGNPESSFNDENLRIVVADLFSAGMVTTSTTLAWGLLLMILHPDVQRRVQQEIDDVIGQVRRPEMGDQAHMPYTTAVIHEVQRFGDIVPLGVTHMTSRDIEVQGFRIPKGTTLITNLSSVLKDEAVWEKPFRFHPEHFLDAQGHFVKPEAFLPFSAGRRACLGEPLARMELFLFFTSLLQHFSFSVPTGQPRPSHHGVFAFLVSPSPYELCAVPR

Cytochrome P450 2C9, sequence (P11712 whole entry): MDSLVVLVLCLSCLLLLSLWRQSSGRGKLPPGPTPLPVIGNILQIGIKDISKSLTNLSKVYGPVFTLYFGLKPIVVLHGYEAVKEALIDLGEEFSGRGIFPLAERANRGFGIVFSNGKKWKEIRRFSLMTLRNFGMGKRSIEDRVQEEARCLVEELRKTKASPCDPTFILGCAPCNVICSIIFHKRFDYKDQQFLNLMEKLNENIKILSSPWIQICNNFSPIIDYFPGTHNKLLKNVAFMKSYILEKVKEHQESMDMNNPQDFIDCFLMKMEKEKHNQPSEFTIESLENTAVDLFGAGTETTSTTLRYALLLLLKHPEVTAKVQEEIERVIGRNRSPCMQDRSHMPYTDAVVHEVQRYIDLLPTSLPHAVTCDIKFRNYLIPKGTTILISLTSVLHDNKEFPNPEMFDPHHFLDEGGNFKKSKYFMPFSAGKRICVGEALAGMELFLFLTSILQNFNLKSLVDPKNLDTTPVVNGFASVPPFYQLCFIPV

In the case of `CN(Cc1nnc(S)n1C)S(=O)(=O)c1ccccc1`, the AC50 (Cytochrome P450 2C9) was “inconclusive”.

For `O=C(O)CC1SC(N/N=C/c2ccccn2)=NC1=O` (stereo not given), the IC50 [1] was > 118 µM (inactive) and the IC50 (Exodeoxyribonuclease V) was > 118 µM (inactive).

In the case of `O=C(O)c1cc(-c2ccc3ccccc3c2)nc2ccc(F)cc12`, the CC50 [2] was 12.1 µM (active), the IC50 (cells) was 19.2 µM (active) and the IC50 (Vero [3]) was > 25 µM (active).

In the case of `O=C(CSC1=NNC(c2ccccn2)S1)Nc1ccccc1` (stereo not given), the EC50 (Beta-galactosidase) was > 31.5 µM (inactive), the pIC50 [4] was < 4.49 and the IC50 (Nonstructural protein 1) was 0.986 µM (active). The EC50 [5] was 3.04 µM (active), the IC50 [1] was > 118 µM (inactive) and the IC50 (Exodeoxyribonuclease V) was > 118 µM (inactive). The IC50 [6] was > 31.5 µM (inactive).

With `CCn1c(=O)c([N+](=O)[O-])c(NCc2ccc3c(c2)OCO3)c2ccccc21` the EC50 (HEK293 [7]) was > 55.9 µM (inactive), the EC50 (Insulin-degrading enzyme [8]) was > 54.7 µM (inactive) and the EC50 (Insulin-degrading enzyme [9]) was > 54.7 µM (inactive). For the same compound, the IC50 (HEK293 [10]) was > 89.2 µM (inactive).

In the case of `CSc1nc(Cl)cc(N(CCO)CCO)n1`, the AC50 (Cytochrome P450 2C9) was “inconclusive”.

For `O=C1Nc2ccccc2C2=NC(CN3CCN(c4cccc(Cl)c4)CC3)CN12` (stereo not given), the AC50 (Cytochrome P450 2C9) was “inconclusive”.

In the case of `CC(=O)Nc1cc([N+](=O)[O-])ccc1OCc1ccccc1`, the IC50 [11] was > 80 µM (inactive).

For `CN=c1ccc(Br)cc(C(=O)/C=C/c2cccc(Cl)c2Cl)c1O`, the CC50 (Vero [12]) was 18 µM (active), the CC50 (Vero [13]) was 9.23 µM (active) and the IC50 (Vero [3]) was > 25 µM (active).

In the case of `CCN1C(=O)/C(=C2\SC(N3CCCCC3)=NC2=O)c2ccccc21`, the AC50 (Cytochrome P450 2D6) was 3.16 µM (inconclusive) and the AC50 (Cytochrome P450 2C9) was “inconclusive”.
